Reference: patent publication US8497092B2, “Method of bioassaying yokukansan” (Tsumura & Co., priority 2008, dated 2013)

Columns and labels:
PC12 cells [1] = experiment: Induction of cell death by glutamate in PC12 cells (MTT assay); assay type: cell-based, rat; conditions: regardless of whether NGF stimulation is present
Procedure: By using PC12 cells obtained in Example 1, a culture condition to efficiently induce cell death by glutamate was studied as follows.
From the above studies, the best culture condition for inducing cell death by glutamate was determined as follows: the cells are seeded on a plate coated with collagen, and a medium supplemented with dialyzed serum and without phenol red is used as an induction medium. The induction medium contains an antibiotic-containing medium obtained by adding 5 mL of a penicillin-streptomycin solution to 500 mL of RPMI 1640 medium (GIBCO 11835-030), 5% dialyzed fetal bovine serum (GIBCO 26400-044), and 10% dialyzed horse serum (Biowest S090D). […]
After 24 hours from the above induction of cell death, 0.5% MTT solution (Dojindo 345-01821) was added in an amount of 20 μL per 100 μL of the medium in the above 96-well plate and cultured for 5 hours. […] The crystals of formazan were dissolved using a pipette, and after leaving the solution overnight, the absorbance at a wavelength of 570 nm was measured with a reference wavelength of 690 nm using a spectrometer (Multiskan MCC/340, manufactured by Titertek, Inc.). Thereafter, the cell viability was calculated from the following calculation formula on the basis of the obtained absorbance. […]

PC12 cells [2] = conditions: Non-Patent Documents 1 to 3; cited from earlier work

Compound | cell death caused by glutamate (PC12 cells [1]) | inhibition of cell death caused by glutamate (PC12 cells [2])
N[C@@H](CCC(=O)O)C(=O)O [glutamate] | concentration-dependent manner | 
(−)-epigallocatechin gallate |  | cell death is inhibited
